According to BindingDB's records for doi:10.1021/jm00174a016 (University of Paris, 1991):
Where a SMILES comes first, the peptide text is derived from it. [ ]: non-standard residue; d: D form. The star is where a group is joined. sY = N[C@@H](Cc1ccc(OS(=O)(=O)O)cc1)C(=O)O; Nle = CCCC[C@H](N)C(=O)O; Orn = NCCC[C@H](N)C(=O)O; Cbz = O=C(OCc1ccccc1)*; Boc = CC(C)(C)OC(=O)*

Columns and labels:
[1] = biological target: Gastrin/cholecystokinin type B receptor (Cavia porcellus); assay: Apparent affinity to inhibit binding of [3H]pCCK-8 to Cholecystokinin type B receptor of guinea pig brain membranes
[2] = biological target: Gastrin/cholecystokinin type B receptor (Cavia porcellus); assay: as above; remark: listed apart in the source

`CC(C)(C)OC(=O)N[C@@H](Cc1c[nH]c2ccccc12)C(=O)N[C@@H](CCCNC(=O)OCc1ccccc1)C(=O)N[C@@H](CC(=O)O)C(N)=O` (Boc-Trp-[Orn](Cbz)-Asp-NH2) was tested, and the Ki [1] was 4200 nM.

In the case of `CC(C)(C)OC(=O)N[C@@H](Cc1c[nH]c2ccccc12)C(=O)N[C@@H](CCCNC(=O)OCc1ccccc1)C(=O)N[C@@H](CC(=O)O)C(=O)N[C@@H](Cc1ccccc1)C(N)=O` (Boc-W[Orn](Cbz)DF-NH2), the Ki [1] is reported as 580 nM.

`CC(C)(C)OC(=O)N[C@@H](Cc1c[nH]c2ccccc12)C(=O)N[C@@H](CCCN)C(=O)N[C@@H](CC(=O)O)C(=O)N[C@@H](Cc1ccccc1)C(N)=O` (Boc-W[Orn]DF-NH2) was tested, and the Ki [2] was 1400 nM.

In the case of `CCCC[C@H](NC(=O)[C@H](Cc1ccc(OS(=O)(=O)O)cc1)NC(=O)OC(C)(C)C)C(=O)NCC(=O)N[C@@H](Cc1c[nH]c2ccccc12)C(=O)N[C@@H](CCCNC(=O)OCc1ccccc1)C(=O)N[C@@H](CC(=O)O)C(N)=O` (Boc-[sY][Nle]GW[Orn](Cbz)D-NH2), the Ki [1] is reported as 54 nM.

`CC(C)(C)OC(=O)NCCC[C@H](NC(=O)[C@H](Cc1c[nH]c2ccccc12)NC(=O)OC(C)(C)C)C(=O)N[C@@H](CC(=O)O)C(N)=O` [3-{5-tert-Butoxycarbonylamino-2-[2-tert-butoxycarbonylamino-3-(1H-indol-3-yl)-propionylamino]-pentanoylamino}-succinamic acid] (Boc-Trp-[Orn](Boc)-Asp-NH2) was tested, and the Ki [2] was 4300 nM.
